Some test systems named below: DU-145; HCT-15; HL-60; HOP-92; HT-29; Hs-578T; KM12; MDA-MB-231; NCI-H226; NCI-H23; RPMI-8226; SF-539; SK-MEL-28; SK-MEL-2; SK-MEL-5; SNB-19; SR; UACC-257.
What all share (assay): NCI-60 cell line screen, 48 h

Structures are written as SMILES.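 Method: 48-hour compound exposure of cells in 96-well plates, five concentrations, linear interpolation of endpoints. GI50 is the concentration that inhibits growth by half.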 The source made the active and inactive calls. No stated cut-off is given here; in the data, active = GI50 up to about 1.1 µM and inactive = higher.

Take `CCN(CCCl)c1cc(CN(C)C)cc(NC(=O)c2ccc(C(=O)Nc3ccccc3)cc2)c1`: the GI50 was 0.415 µM (active) with DU-145; 1.7 µM in the assay on HCT-15; 0.193 µM (active) in the assay on HL-60; 0.414 µM (active) in the assay on HOP-92; 0.174 µM (active) with HT-29; 0.218 µM (active) in the assay with Hs-578T. Further, the GI50 was 1.06 µM (active) with KM12; 1.3 µM (inactive) with MDA-MB-231; 1.53 µM (inactive) in the assay with NCI-H226; 0.27 µM (active) in the assay on NCI-H23; 0.307 µM (active) with RPMI-8226; 0.647 µM (active) in the assay on SF-539. The GI50 in the assay on SK-MEL-28 is 1.19 µM (inactive); in the assay with SK-MEL-2, 0.27 µM (active); with SK-MEL-5, 0.194 µM (active); in the assay on SNB-19 it was 0.676 µM (active); with SR, 0.263 µM (active); with UACC-257, 1.3 µM (inactive).

Consider `O=C(OC1C(Oc2ccccc2COC(=O)C2(O)C=CCCC2=O)OC(CO)C(O)C1O)c1ccccc1` (centres undefined), for which the GI50 in the assay with DU-145 was 0.953 µM (active); with HCT-15, 28.2 µM; in the assay on HL-60, 23.6 µM (inactive); with HOP-92, 0.094 µM (active); in the assay with HT-29, 60.4 µM (inactive); with Hs-578T it was 13.5 µM (inactive). The GI50 was 27.4 µM (inactive) in the assay with KM12; 35.5 µM (inactive) with MDA-MB-231; 23.8 µM (inactive) in the assay on NCI-H226; 26.4 µM (inactive) in the assay with NCI-H23; 13.5 µM (inactive) with RPMI-8226; 29.6 µM (inactive) in the assay on SF-539. Further, the GI50 is 68.4 µM (inactive) in the assay on SK-MEL-28; 65.8 µM (inactive) with SK-MEL-2; 1.28 µM (inactive) in the assay on SK-MEL-5; 40.9 µM (inactive) with SNB-19; 19.4 µM (inactive) with SR; 46.5 µM (inactive) with UACC-257.

`COC(=O)/C(C)=N/N=C(\S)SC`: the GI50 is 24.3 µM (inactive) in the assay with DU-145; 36.7 µM in the assay on HCT-15; 0.105 µM (active) in the assay with HL-60; > 100 µM (inactive) in the assay on HOP-92; 17.3 µM (inactive) with HT-29; 28.8 µM (inactive) with Hs-578T. Further, the GI50 with KM12 was 52.5 µM (inactive); with MDA-MB-231, 46.6 µM (inactive); with NCI-H226, > 100 µM (inactive); with NCI-H23, 45.6 µM (inactive); with RPMI-8226, 66.4 µM (inactive); with SF-539, 82.6 µM (inactive). The GI50 with SK-MEL-28 is 44.5 µM (inactive); in the assay with SK-MEL-2, 31 µM (inactive); in the assay with SK-MEL-5 it was 29.2 µM (inactive); in the assay on SR it was 49.7 µM (inactive); with UACC-257 it was 50.9 µM (inactive).

As to `CC(C)(C)C(=O)CC(=O)C(F)(F)C(F)(F)C(F)(F)F`, the GI50 in the assay on DU-145 is 36.1 µM (inactive); in the assay with HCT-15, 14.3 µM; with HL-60, 19.2 µM (inactive); in the assay on HOP-92 it was 14.7 µM (inactive); with HT-29 it was 17.1 µM (inactive); in the assay with Hs-578T, 14.6 µM (inactive). For the same compound, the GI50 is 16.7 µM (inactive) in the assay with KM12; 15.5 µM (inactive) in the assay on MDA-MB-231; 27.8 µM (inactive) in the assay with NCI-H226; 12.6 µM (inactive) in the assay with NCI-H23; 11.1 µM (inactive) with RPMI-8226; 24.8 µM (inactive) in the assay with SF-539. Moreover, the GI50 in the assay on SK-MEL-28 is 14.1 µM (inactive); with SK-MEL-2 it was 16.4 µM (inactive); in the assay on SK-MEL-5, 7.19 µM (inactive); in the assay on SNB-19, 20 µM (inactive); in the assay on SR, 5.06 µM (inactive); in the assay with UACC-257, 15.3 µM (inactive).

For the compound `O=C1c2c(ccc3c2CCC3)CC12Cc1ccccc1C2`, the GI50 was 17.7 µM (inactive) with DU-145; 15.6 µM in the assay on HCT-15; 10.4 µM (inactive) with HL-60; 10.5 µM (inactive) in the assay with HOP-92; 9.08 µM (inactive) in the assay with HT-29; 21.4 µM (inactive) in the assay with Hs-578T. The GI50 is 22.5 µM (inactive) with KM12; 22.4 µM (inactive) in the assay on MDA-MB-231; 18 µM (inactive) in the assay on NCI-H226; 20.8 µM (inactive) in the assay on NCI-H23; 7.38 µM (inactive) with RPMI-8226; 12.2 µM (inactive) with SF-539. Moreover, the GI50 with SK-MEL-28 was 25 µM (inactive); in the assay with SK-MEL-2 it was 21.4 µM (inactive); in the assay with SK-MEL-5, 10.9 µM (inactive); in the assay on SNB-19, 33.7 µM (inactive); in the assay with UACC-257, 22.1 µM (inactive).

`NC1=NN(c2ccccc2)C(=O)C1/C(=N\NC(=O)c1cc2ccccc2cc1O)C(=O)Nc1ccc(Cl)c(Cl)c1` (centres undefined): the GI50 with HCT-15 is 13.6 µM; in the assay on HL-60, 5.13 µM (inactive); in the assay with HOP-92 it was 32.7 µM (inactive); in the assay with HT-29, 59.2 µM (inactive); in the assay on KM12 it was 43.6 µM (inactive); in the assay with NCI-H226, 64.9 µM (inactive). In addition, the GI50 in the assay on NCI-H23 is 28.9 µM (inactive); in the assay with RPMI-8226, 26 µM (inactive); in the assay with SF-539, 30.9 µM (inactive); in the assay on SK-MEL-28, 83.4 µM (inactive); in the assay on SK-MEL-2, 55.7 µM (inactive); in the assay with SK-MEL-5 it was 29.5 µM (inactive). Also, the GI50 with SNB-19 is 25.4 µM (inactive); in the assay on SR it was 0.0612 µM (active); in the assay with UACC-257, 29.7 µM (inactive).

Turning to `COC(=O)[C@H](Cc1ccc(OC(C)(C)C)cc1)N[C@H](C)C(=O)N[C@@H](Cc1ccccc1)C(=O)OCc1ccccc1`, the GI50 was > 100 µM (inactive) with DU-145; over 100 µM in the assay on HCT-15; 45.5 µM (inactive) in the assay with HL-60; > 100 µM (inactive) in the assay on HOP-92; 47.2 µM (inactive) in the assay with HT-29; > 100 µM (inactive) in the assay on Hs-578T. Besides, the GI50 was 83.9 µM (inactive) in the assay with KM12; > 100 µM (inactive) in the assay with MDA-MB-231; 25.8 µM (inactive) with NCI-H226; > 100 µM (inactive) in the assay with NCI-H23; 37.8 µM (inactive) with RPMI-8226; > 100 µM (inactive) in the assay on SF-539. Moreover, the GI50 in the assay with SK-MEL-28 is > 100 µM (inactive); with SK-MEL-5 it was > 100 µM (inactive); in the assay on SNB-19, > 100 µM (inactive); with SR it was 26.2 µM (inactive); with UACC-257, > 100 µM (inactive).

On to `CC(C)N(C(=O)C12C3C4C1C1C2C3C41C(=O)O)C(C)C` (centres undefined), for which the GI50 in the assay on HCT-15 was over 100 µM; with HL-60, > 100 µM (inactive); in the assay on HT-29, > 100 µM (inactive); in the assay on KM12, > 100 µM (inactive); in the assay with NCI-H226, > 100 µM (inactive); with NCI-H23, > 100 µM (inactive). Further, the GI50 in the assay with RPMI-8226, with SF-539, in the assay with SK-MEL-28, in the assay with SK-MEL-2, in the assay on SK-MEL-5 and in the assay on SNB-19 was > 100 µM (inactive) in each case. The GI50 in the assay with UACC-257 was > 100 µM (inactive).

Consider `CCCN(CCC)C(=O)c1c(Cl)c2cccnc2n2c(C)cnc12`, for which the GI50 with DU-145 is > 100 µM (inactive); with HL-60, 23.1 µM (inactive); with HOP-92 it was 73.3 µM (inactive); in the assay with HT-29, > 100 µM (inactive); in the assay on Hs-578T it was > 100 µM (inactive); in the assay with KM12 it was 51.1 µM (inactive). Further, the GI50 with MDA-MB-231 was 31.8 µM (inactive); in the assay with NCI-H226 it was > 100 µM (inactive); with NCI-H23 it was 90.2 µM (inactive); in the assay on RPMI-8226, 39.5 µM (inactive); in the assay with SF-539, > 100 µM (inactive); with SK-MEL-28, > 100 µM (inactive). In addition, the GI50 is 37.8 µM (inactive) with SK-MEL-5, > 100 µM (inactive) in the assay on SNB-19, 32.9 µM (inactive) with SR and 95.3 µM (inactive) in the assay on UACC-257.

Turning to `Cc1nnc(Nc2ccccc2)o1`, the GI50 was > 100 µM (inactive) in the assay with DU-145; over 100 µM in the assay on HCT-15; > 100 µM (inactive) in the assay with HL-60; > 100 µM (inactive) in the assay on HT-29; > 100 µM (inactive) with KM12; > 100 µM (inactive) in the assay with NCI-H226. Moreover, the GI50 with NCI-H23 is > 100 µM (inactive); in the assay on RPMI-8226 it was > 100 µM (inactive); with SF-539 it was > 100 µM (inactive); with SK-MEL-28 it was > 100 µM (inactive); with SK-MEL-2 it was 70.8 µM (inactive); in the assay with SK-MEL-5, > 100 µM (inactive). The GI50 in the assay on SNB-19, in the assay on SR and in the assay with UACC-257 was > 100 µM (inactive) throughout.

As for `NNc1ncc2c(n1)-c1ccccc1OC2`, the GI50 with DU-145 was 61 µM (inactive); in the assay with HCT-15 it was 29.9 µM; in the assay on HL-60 it was 19.7 µM (inactive); in the assay with HOP-92, 24.7 µM (inactive); with HT-29 it was 43.9 µM (inactive); in the assay with Hs-578T it was > 100 µM (inactive). For the same compound, the GI50 was 54.1 µM (inactive) in the assay with KM12; > 100 µM (inactive) in the assay with MDA-MB-231; 75.2 µM (inactive) in the assay on NCI-H226; > 100 µM (inactive) in the assay with NCI-H23; 38.2 µM (inactive) in the assay with RPMI-8226; 46.3 µM (inactive) with SF-539. Moreover, the GI50 in the assay on SK-MEL-28 was > 100 µM (inactive); in the assay on SK-MEL-2, > 100 µM (inactive); in the assay with SK-MEL-5 it was 76.9 µM (inactive); in the assay with SNB-19, > 100 µM (inactive); in the assay on SR, 27.8 µM (inactive); with UACC-257, > 100 µM (inactive).

For the compound `COc1c2c(cc3nc4ccccc4nc13)CC[C@H](NC(C)=O)c1cc(=O)c(SC)ccc1-2`, the GI50 in the assay with DU-145 was 2.47 µM (inactive); in the assay with HCT-15, 2.84 µM; in the assay on HOP-92 it was 5.75 µM (inactive); in the assay with HT-29, 1.04 µM (active); in the assay with Hs-578T, 0.126 µM (active); in the assay with KM12, 0.273 µM (active). Besides, the GI50 with MDA-MB-231 was 2.96 µM (inactive); with NCI-H226, 1.08 µM (active); in the assay on NCI-H23 it was 0.238 µM (active); with RPMI-8226 it was 0.538 µM (active); in the assay on SF-539, 0.304 µM (active); in the assay with SK-MEL-28 it was 12.7 µM (inactive). Moreover, the GI50 is 3.05 µM (inactive) in the assay on SK-MEL-2; 0.412 µM (active) with SK-MEL-5; 0.446 µM (active) in the assay with SNB-19; 0.322 µM (active) in the assay on SR; 1.59 µM (inactive) in the assay on UACC-257.

(Values after ChEMBL document CHEMBL1201862, “PubChem BioAssay data set” (2004).)
